In one data set the test system is Cladosporium resinae. In words: MIC of fumifungin, growth inhibition of Cladosporium resinae. Particulars: Amorphotheca resinae. It is filed as cell-based.
The subject of another data set is Candida albicans. In words: MIC of fumifungin, growth inhibition of Candida albicans. The data set is classed as cell-based.
Another data set concerns Wild yeast. Kind of data set: MIC of fumifungin, growth inhibition of Wild yeast. It is filed as cell-based.
In a further data set the test system is Cercospora beticola. In words: MIC of fumifungin, growth inhibition of Cercospora beticola. It is filed as cell-based.
Another data set concerns bacteria. In words: bactericidal properties. The data set is classed as cell-based.
The next data set has as its system Aspergillus niger. Kind of data set: MIC of fumifungin, growth inhibition of Aspergillus niger. It is filed as cell-based.
For a further data set, the system named is fungi. Kind of data set: fungicidal properties. It is filed as cell-based.
Data set [1] is described as follows: Solubility (physicochemical properties of fumifungin). The following applies: solvents in which soluble.
For a further data set, the system named is Saccharomyces cerevisiae. Kind of data set: MIC of fumifungin, growth inhibition of Saccharomyces cerevisiae. The data set is classed as cell-based.
The test system of the next data set is Alternaria solani. In words: MIC of fumifungin, growth inhibition of Alternaria solani. It is filed as cell-based.

As to `CCCCCCC(O)CCCCCCC=CC(O)C(OC(C)=O)C(O)C(N)C(=O)O` (stereo not shown) [fumifungin, 2-amino-4-acetoxy-3,5,14-tri-hydroxy-Δ^6-eicosenoic acid], the MIC in the data set on Cladosporium resinae was more than 0.9 mg/mL; in the data set with Candida albicans it was 62.5 mg/mL; in the data set with Wild yeast, 62.5 mg/mL; in the data set on Cercospora beticola, 0.9 mg/mL; in the data set with Aspergillus niger it was more than 7.8 mg/mL; in the data set on Saccharomyces cerevisiae it was 62.5 mg/mL. The minimum inhibitory concentration (MIC) in the data set with Alternaria solani came to 31.2 mg/mL. The bactericidal properties result with bacteria was “bactericidal”. The fungicidal properties entry in the data set on fungi is “fungicidal”. The Solubility entry in data set [1] is “methanol, DMSO”.

The values above are taken from patent publication US5001258A, “Antibiotic, fumifungin, a microbial process for the preparation thereof, and the use thereof as a pharmaceutical” (Hoechst Aktiengesellschaft, priority 1987, dated 1991).
